Measured values as given in article PMC11116414, “Impact of secretin receptor homo-dimerization on natural ligand binding” (Nature Communications, 2024).
No end group written: not given here.

Tested on: cysteine-containing SecR(G264A,I268A) constructs
Test: Cysteine trapping with SecR(G264A,I268A) cysteine constructs, intact COS-1 cells
Type: binding, human
Settings: for Intraloop labeling / Overall labeling: mean ± S.E.M.
Procedure: In short, 15 µg of each peptide were incubated with 1 mCi of Na^125I for 15 s in borate buffer (pH 9.0) using solid-state N-chlorobenzene sulfonamide (iodination beads), and radioactive peptide products were separated and purified using reversed-phase HPLC, to yield a mono-iodinated peak with a specific radioactivity of 2000 Ci/mmol.
Modified secretin receptor constructs were prepared by mutagenesis of human SecR(G264A,I268A) by introducing cysteine residues to replace each natural residue in the N-terminal stalk region, (extracellular loop 1) ECL1, ECL2, and ECL3 regions of the receptor[21]. Mutagenesis was performed using the QuikChange site-directed mutagenesis kit from Stratagene (La Jolla, CA), with the products verified by direct DNA sequencing.
Cysteine trapping is a technique in which cysteine residues incorporated into distinct positions within a peptide ligand and within its receptor are allowed to form disulfide bonds when two free cysteines are in proximity to each other with necessary distance and geometry. As noted above, this was performed with secretin peptides incorporating cysteines in positions 2, 5, 6 and 7[20],[21], and with a series of SecR mutants incorporating cysteines in all extracellular domains (75 distinct constructs in a TM4 mutant non-dimerizing SecR background). COS-1 cells were grown to approximate 85% confluence in 24-well tissue culture plates, and transfected with cysteine mutant receptor constructs using the PEI method. Assays were started by washing the cells with DMEM containing 5% Fetal Clone II before being incubated with 200 μl radiolabeled cysteine-containing probes (approximately 100,000 cpm per well) for 1.5 h at room temperature. The assays were terminated by washing the cells with ice-cold PBS, pH 7.4, and mixing with 60 µl SDS Laemmli sample buffer not containing dithiothreitol (DTT). Lysates were run on 10% SDS-polyacrylamide gels. Gels were then dried, and bands of interest were visualized by autoradiography, and specific bands were identified, and intensities quantified using ImageJ. Sites having labeling above background were determined using one-way ANOVA with Dunnett’s post-test, with P < 0.001 considered to be significant. The apparent molecular weights of the receptor bands were determined by interpolation with the mobility of the appropriate ProSieve protein markers.

[1] = A292C, ECL2, n = 3-5, Cys5 significant (P < 0.0001)
[2] = A365C, ECL3, n = 3-5, Cys5 significant (P < 0.0001)
[3] = D364C, ECL3, n = 3-5, Cys5 significant (P < 0.0001)
[4] = F279C, ECL2, % of highest labeling within loop, n = 4 (Cys2), 5 (Cys5, Cys6), 3 (Cys7)
[5] = F279C, ECL2, % of highest-labeled residue across all constructs, n = 4 (Cys2), 5 (Cys5, Cys6), 3 (Cys7)
[6] = I288C, ECL2, n = 3-5, Cys5 and Cys7 significant (P < 0.0001)
[7] = L374C, ECL3, n = 3-5, Cys5, Cys6, Cys7 significant (P < 0.001)
[8] = W295C, ECL2, n = 3-5, Cys2, Cys5, Cys7 significant (P < 0.0001)
[9] = W296C, ECL2, n = 3-5, Cys6 significant (P = 0.0003)

Substance: Cys^2-[Tyr^10]secretin(1-27) (HCDGTFTSEYSRLREGARLQRLLQGLV; not fully specified; ends and bridges not checked; also: radioiodinated; UniProt P09683 28-54, looked up, variant S2C L10Y) [Cys^2-Sec, cysteine-containing secretin agonist probe, radioiodinated for cysteine trapping]
- Intraloop labeling (A290C, ECL2, n = 3-5): < 1 percentage
- Overall labeling (A290C, ECL2, n = 3-5): < 1 percentage
- Intraloop labeling (A292C, ECL2, n = 3-5): < 1 percentage
- Overall labeling [1]: < 1 percentage
- Intraloop labeling (A365C, ECL3, n = 3-5): 22.5±19.5 percentage
- Overall labeling [2]: 21.7±19.6 percentage
- Intraloop labeling (D282C, ECL2, n = 3-5): < 1 percentage
- Overall labeling (D282C, ECL2, n = 3-5): < 1 percentage
- Intraloop labeling (D287C, ECL2, n = 3-5): < 1 percentage
- Overall labeling (D287C, ECL2, n = 3-5): < 1 percentage
- Intraloop labeling (D364C, ECL3, n = 3-5): 22.1±19.0 percentage
- Overall labeling [3]: 21.3±19.1 percentage
- Intraloop labeling (E281C, ECL2, n = 3-5): < 1 percentage
- Overall labeling (E281C, ECL2, n = 3-5): < 1 percentage
- Overall labeling (E363C, ECL3, n = 3-5): < 1 percentage
- Intraloop labeling (E367C, ECL3, n = 3-5): < 1 percentage
- Overall labeling (E367C, ECL3, n = 3-5): < 1 percentage
- Intraloop labeling (E373C, ECL3, n = 3-5): 37.0±22.4 percentage
- Overall labeling (E373C, ECL3, n = 3-5): 27.2±18.7 percentage
- Intraloop labeling [4]: < 1 percentage
- Overall labeling [5]: < 1 percentage
- Intraloop labeling (F358C, ECL3, n = 3-5): 36.3±17.6 percentage
- Overall labeling (F358C, ECL3, n = 3-5): 29.0±11.6 percentage
- Intraloop labeling (F360C, ECL3, n = 3-5): 22.9±8.3 percentage
- Overall labeling (F360C, ECL3, n = 3-5): 19.4±6.5 percentage
- Intraloop labeling (F371C, ECL3, n = 3-5): 14.7±12.5 percentage
- Overall labeling (F371C, ECL3, n = 3-5): 14.5±12.5 percentage
- Intraloop labeling (F372C, ECL3, n = 3-5): 33.7±20.5 percentage
- Overall labeling (F372C, ECL3, n = 3-5): 23.5±15.3 percentage
- Intraloop labeling (G284C, ECL2, n = 3-5): < 1 percentage
- Overall labeling (G284C, ECL2, n = 3-5): < 1 percentage
- Intraloop labeling (I288C, ECL2, n = 3-5): < 1 percentage
- Overall labeling [6]: < 1 percentage
- Intraloop labeling (I294C, ECL2, n = 3-5): < 1 percentage
- Overall labeling (I294C, ECL2, n = 3-5): < 1 percentage
- Intraloop labeling (I368C, ECL3, n = 3-5): < 1 percentage
- Overall labeling (I368C, ECL3, n = 3-5): < 1 percentage
- Intraloop labeling (L280C, ECL2, n = 3-5): < 1 percentage
- Overall labeling (L280C, ECL2, n = 3-5): < 1 percentage
- Intraloop labeling (L370C, ECL3, n = 3-5): 16.6±15.3 percentage
- Intraloop labeling (L374C, ECL3, n = 3-5): 40.3±24.4 percentage
- Overall labeling [7]: 29.1±19.6 percentage
- Intraloop labeling (N289C, ECL2, n = 3-5): < 1 percentage
- Overall labeling (N289C, ECL2, n = 3-5): < 1 percentage
- Intraloop labeling (N291C, ECL2, n = 3-5): < 1 percentage
- Overall labeling (N291C, ECL2, n = 3-5): < 1 percentage
- Intraloop labeling (Q369C, ECL3, n = 3-5): < 1 percentage
- Overall labeling (Q369C, ECL3, n = 3-5): < 1 percentage
- Intraloop labeling (S293C, ECL2, n = 3-5): < 1 percentage
- Overall labeling (S293C, ECL2, n = 3-5): < 1 percentage
- Intraloop labeling (S361C, ECL3, n = 3-5): < 1 percentage
- Overall labeling (S361C, ECL3, n = 3-5): < 1 percentage
- Intraloop labeling (V283C, ECL2, n = 3-5): < 1 percentage
- Overall labeling (V283C, ECL2, n = 3-5): < 1 percentage
- Intraloop labeling (W286C, ECL2, n = 3-5): < 1 percentage
- Overall labeling (W286C, ECL2, n = 3-5): < 1 percentage
- Intraloop labeling (W295C, ECL2, n = 3-5): 100±0 percentage
- Overall labeling [8]: 93.0±7.0 percentage
- Intraloop labeling (W296C, ECL2, n = 3-5): < 1 percentage
- Overall labeling [9]: < 1 percentage

Substance: Cys^5-[Tyr^10]secretin(1-27) (HSDGCFTSEYSRLREGARLQRLLQGLV; not fully specified; ends and bridges not checked; also: radioiodinated; UniProt P09683 28-54, looked up, variant T5C L10Y) [Cys^5-Sec, cysteine-containing secretin agonist probe, radioiodinated for cysteine trapping]
- Intraloop labeling (A290C, ECL2, n = 3-5): 20.3±19.9 percentage
- Overall labeling (A290C, ECL2, n = 3-5): 15.5±15.2 percentage
- Intraloop labeling (A292C, ECL2, n = 3-5): 93.4±2.8 percentage
- Overall labeling [1]: 88.5±4.0 percentage
- Intraloop labeling (A365C, ECL3, n = 3-5): 90.4±5.8 percentage
- Overall labeling [2]: 82.4±7.9 percentage
- Intraloop labeling (D282C, ECL2, n = 3-5): < 1 percentage
- Overall labeling (D282C, ECL2, n = 3-5): < 1 percentage
- Intraloop labeling (D287C, ECL2, n = 3-5): < 1 percentage
- Overall labeling (D287C, ECL2, n = 3-5): < 1 percentage
- Intraloop labeling (D364C, ECL3, n = 3-5): 62.2±12.3 percentage
- Overall labeling [3]: 54.2±7.8 percentage
- Intraloop labeling (E281C, ECL2, n = 3-5): < 1 percentage
- Overall labeling (E281C, ECL2, n = 3-5): < 1 percentage
- Intraloop labeling (E363C, ECL3, n = 3-5): < 1 percentage
- Overall labeling (E363C, ECL3, n = 3-5): < 1 percentage
- Intraloop labeling (E367C, ECL3, n = 3-5): < 1 percentage
- Overall labeling (E367C, ECL3, n = 3-5): < 1 percentage
- Intraloop labeling (E373C, ECL3, n = 3-5): < 1 percentage
- Overall labeling (E373C, ECL3, n = 3-5): < 1 percentage
- Intraloop labeling [4]: < 1 percentage
- Overall labeling [5]: < 1 percentage
- Intraloop labeling (F371C, ECL3, n = 3-5): < 1 percentage
- Overall labeling (F371C, ECL3, n = 3-5): < 1 percentage
- Intraloop labeling (F372C, ECL3, n = 3-5): < 1 percentage
- Overall labeling (F372C, ECL3, n = 3-5): < 1 percentage
- Intraloop labeling (G284C, ECL2, n = 3-5): < 1 percentage
- Overall labeling (G284C, ECL2, n = 3-5): < 1 percentage
- Intraloop labeling (I288C, ECL2, n = 3-5): 71.1±10.8 percentage
- Overall labeling [6]: 69.2±12.2 percentage
- Intraloop labeling (I294C, ECL2, n = 3-5): < 1 percentage
- Overall labeling (I294C, ECL2, n = 3-5): < 1 percentage
- Intraloop labeling (I297C, ECL2, n = 3-5): < 1 percentage
- Overall labeling (I297C, ECL2, n = 3-5): < 1 percentage
- Intraloop labeling (I368C, ECL3, n = 3-5): < 1 percentage
- Overall labeling (I368C, ECL3, n = 3-5): < 1 percentage
- Intraloop labeling (L280C, ECL2, n = 3-5): < 1 percentage
- Overall labeling (L280C, ECL2, n = 3-5): < 1 percentage
- Intraloop labeling (L370C, ECL3, n = 3-5): < 1 percentage
- Overall labeling (L370C, ECL3, n = 3-5): < 1 percentage
- Intraloop labeling (L374C, ECL3, n = 3-5): 77.3±7.7 percentage
- Overall labeling [7]: 69.8±7.5 percentage
- Intraloop labeling (M366C, ECL3, n = 3-5): 59.9±11.0 percentage
- Overall labeling (M366C, ECL3, n = 3-5, Cys5 significant (P < 0.0001)): 55.3±12.0 percentage
- Intraloop labeling (N289C, ECL2, n = 3-5): < 1 percentage
- Overall labeling (N289C, ECL2, n = 3-5): < 1 percentage
- Intraloop labeling (N291C, ECL2, n = 3-5): < 1 percentage
- Overall labeling (N291C, ECL2, n = 3-5): < 1 percentage
- Intraloop labeling (P362C, ECL3, n = 3-5): 20.3±19.9 percentage
- Overall labeling (P362C, ECL3, n = 3-5): 19.3±19.0 percentage
- Intraloop labeling (Q369C, ECL3, n = 3-5): 21.6±13.4 percentage
- Overall labeling (Q369C, ECL3, n = 3-5): 21.6±13.5 percentage
- Intraloop labeling (S293C, ECL2, n = 3-5): < 1 percentage
- Overall labeling (S293C, ECL2, n = 3-5): < 1 percentage
- Intraloop labeling (S361C, ECL3, n = 3-5): < 1 percentage
- Overall labeling (S361C, ECL3, n = 3-5): < 1 percentage
- Intraloop labeling (V283C, ECL2, n = 3-5): < 1 percentage
- Overall labeling (V283C, ECL2, n = 3-5): < 1 percentage
- Intraloop labeling (W286C, ECL2, n = 3-5): < 1 percentage
- Overall labeling (W286C, ECL2, n = 3-5): < 1 percentage
- Intraloop labeling (W295C, ECL2, n = 3-5): 79.1±16.7 percentage
- Overall labeling [8]: 78.3±17.3 percentage
- Intraloop labeling (W296C, ECL2, n = 3-5): < 1 percentage
- Overall labeling [9]: < 1 percentage
- cysteine trapping in ECL3, in words (WT (earlier work) and non-dimerizing SecR): labeled ECL3 residues
